Measurements reported in patent publication US9079900B2, “Methods of synthesis and purification of heteroaryl compounds” (SIGNAL PHARMACEUTICALS, LLC, priority 2009, dated 2015).

SMILES | melting point [°C]
CC(C)(O)c1ccc(-c2cnc3c(n2)N(CCN2CCOCC2)CC(=O)N3)cn1 [Example 5, 6-(6-(2-Hydroxypropan-2-yl)pyridin-3-yl)-4-(2-morpholinoethyl)-3,4-dihydropyrazino[2,3-b]pyrazin-2(1H)-one] | 239 to 241
O=C1CNc2ncc(-c3cnc4[nH]ccc4c3)nc2N1CCC1CCOCC1 [Example 15, 7-(1H-Pyrrolo[2,3-b]pyridin-5-yl)-1-(2-(tetrahydro-2h-pyran-4-yl)ethyl)-3,4-dihydropyrazino[2,3-b]pyrazin-2(1H)-one] | 255 to 258
